Test results: ChEMBL document CHEMBL1201862, “PubChem BioAssay data set” (2004)
Structures can show the parent of a compound that is named as a salt.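 Protocol summary: plate cells (96-well), add compound at 5 concentrations, incubate 48 h, interpolate endpoints linearly. GI50 is the concentration that inhibits growth by half.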 Calls of active or inactive are those of the source. Rule as the data show it: active = GI50 up to about 1.1 µM and inactive = higher.

Legend:
Test in all cases: inhibition of tumour cell growth, NCI panel, 48 h
A498 = tested on: A498
CAKI-1 = tested on: CAKI-1
HCT-116 = tested on: HCT-116
IGROV-1 = tested on: IGROV-1
KM12 = tested on: KM12
Malme-3M = tested on: Malme-3M
SF-539 = tested on: SF-539
SK-MEL-28 = tested on: SK-MEL-28
SK-OV-3 = tested on: SK-OV-3
SNB-19 = tested on: SNB-19
SNB-75 = tested on: SNB-75
SW-620 = tested on: SW-620
UO-31 = tested on: UO-31
HCT-15 = tested on: HCT-15

Structure (SMILES) | GI50 (A498) | GI50 (CAKI-1) | GI50 (HCT-116) | GI50 (IGROV-1) | GI50 (KM12) | GI50 (Malme-3M) | GI50 (SF-539) | GI50 (SK-MEL-28) | GI50 (SK-OV-3) | GI50 (SNB-19) | GI50 (SNB-75) | GI50 (SW-620) | GI50 (UO-31) | GI50 (HCT-15)
CN(C)c1ccc(/C=c2\sc3nnc(-c4ccco4)n3c2=O)cc1 | > 100 µM (inactive) | > 100 µM (inactive) | > 100 µM (inactive) | > 100 µM (inactive) | > 100 µM (inactive) | > 100 µM (inactive) | > 100 µM (inactive) | > 100 µM (inactive) | > 100 µM (inactive) | > 100 µM (inactive) | 31.6 µM (inactive) | > 100 µM (inactive) | > 100 µM (inactive) | –
COc1nc(NC2OC(COC(C)=O)C(OC(C)=O)C(OC(C)=O)C2OC(C)=O)c2c(OC(C)=O)c(C)c(=O)oc2n1 (stereo not given) | 1.75 µM (inactive) | > 100 µM (inactive) | > 100 µM (inactive) | > 100 µM (inactive) | > 100 µM (inactive) | > 100 µM (inactive) | > 100 µM (inactive) | – | > 100 µM (inactive) | > 100 µM (inactive) | > 100 µM (inactive) | > 100 µM (inactive) | > 100 µM (inactive) | > 100 µM
Nc1nc(NCCO)c(N=O)c(=O)[nH]1 | > 100 µM (inactive) | > 100 µM (inactive) | > 100 µM (inactive) | > 100 µM (inactive) | > 100 µM (inactive) | > 100 µM (inactive) | > 100 µM (inactive) | > 100 µM (inactive) | > 100 µM (inactive) | – | > 100 µM (inactive) | > 100 µM (inactive) | > 100 µM (inactive) | > 100 µM
O=C(Cc1c(C(=O)Nc2ccccc2)sc(C(=O)Nc2ccccc2)c1CC(=O)Nc1ccccc1)Nc1ccccc1 | > 100 µM (inactive) | > 100 µM (inactive) | > 100 µM (inactive) | > 100 µM (inactive) | > 100 µM (inactive) | > 100 µM (inactive) | > 100 µM (inactive) | 0.719 µM (active) | > 100 µM (inactive) | > 100 µM (inactive) | > 100 µM (inactive) | > 100 µM (inactive) | > 100 µM (inactive) | –
CCOC(=O)C12CCCC1(O)N(NC(=O)c1ccccc1)C(C)=C2C(=O)OC (stereo not given) | > 100 µM (inactive) | > 100 µM (inactive) | > 100 µM (inactive) | > 100 µM (inactive) | > 100 µM (inactive) | > 100 µM (inactive) | > 100 µM (inactive) | – | > 100 µM (inactive) | > 100 µM (inactive) | – | > 100 µM (inactive) | > 100 µM (inactive) | > 100 µM
COc1ccc2c(c1)C(O)(C(F)(F)F)c1cc(C(=O)C(F)(F)F)c3ccccc3c1N2 (stereo not given) | 14.3 µM (inactive) | 13.7 µM (inactive) | – | 13.8 µM (inactive) | 4.35 µM (inactive) | – | 16.3 µM (inactive) | 14.6 µM (inactive) | 17.8 µM (inactive) | 16 µM (inactive) | 16.9 µM (inactive) | 13.9 µM (inactive) | 9.86 µM (inactive) | 7.35 µM
COc1ccc2[nH]c3c(cnn4cnnc34)c2c1 | – | > 100 µM (inactive) | – | > 100 µM (inactive) | > 100 µM (inactive) | > 100 µM (inactive) | > 100 µM (inactive) | > 100 µM (inactive) | > 100 µM (inactive) | > 100 µM (inactive) | > 100 µM (inactive) | > 100 µM (inactive) | > 100 µM (inactive) | > 100 µM
COC(=O)C1=CO[C@@H](C)[C@@H]2Cn3ccc4c5ccccc5nc-4c3C[C@H]12 [ALSTONINE HYDROCHLORIDE] | > 100 µM (inactive) | – | > 100 µM (inactive) | > 100 µM (inactive) | – | > 100 µM (inactive) | > 100 µM (inactive) | > 100 µM (inactive) | > 100 µM (inactive) | > 100 µM (inactive) | > 100 µM (inactive) | > 100 µM (inactive) | > 100 µM (inactive) | > 100 µM
